The results in this text go back to patent US10472356B2, “Bicyclic ketone sulfonamide compounds” (AMGEN INC., priority 2015, dated 2019).

SMILES strings stand for the structures.

Experiment [1] concerns the target T1, human Nav1.7 (Homo sapiens, UniProt Q15858).
T1 construct: expressed in transfected cells; host or cells: HEK293
The experiment in a line: Nav 1.7 In Vitro PatchXpress (PX) Assay. The format is cell-based. The settings on record: HEK 293 cells stably transfected with human Nav1.7; PatchXpress whole cell voltage clamp; partially inactivated state (holding potential yielding 20 to 50% inactivation); read-out: hNav1.7 PX IC50. In a few lines: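 Whole-cell voltage clamp on HEK 293 cells stably expressing human Nav1.7 (automated patch), holding potential giving 20–50% inactivation; 20 ms pulses to −10 mV at 0.1 Hz. Single compound concentration applied 3 min, peak current inhibition measured; IC50 fitted from 3–5 cells per concentration.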

Experiment [2] addresses T1, human Nav1.7. The experiment in a line: Nav 1.7 IWB In Vitro Assay (IonWorks Barracuda). The class given is cell-based. The settings on record: HEK293 cells stably transfected with human Nav 1.7; IonWorks Barracuda population patch-clamp; cells clamped to −20 mV for 4 minutes with compound; 26th pulse; read-out: hNav1.7 IWB IC50. In a few lines:
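Population patch clamp of HEK293 cells stably expressing human Nav 1.7: 26 pulses to −20 mV (150 ms, 5 Hz) from −110 mV, then 4 min at −20 mV with compound, 3 s recovery at −110 mV and the train repeated. % inhibition of 26th-pulse peak current vs no compound; IC50 from concentration-response curves.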
In general terms: In patch-clamp work, channel activity is measured electrically.

T1 sequence (Q15858 whole entry): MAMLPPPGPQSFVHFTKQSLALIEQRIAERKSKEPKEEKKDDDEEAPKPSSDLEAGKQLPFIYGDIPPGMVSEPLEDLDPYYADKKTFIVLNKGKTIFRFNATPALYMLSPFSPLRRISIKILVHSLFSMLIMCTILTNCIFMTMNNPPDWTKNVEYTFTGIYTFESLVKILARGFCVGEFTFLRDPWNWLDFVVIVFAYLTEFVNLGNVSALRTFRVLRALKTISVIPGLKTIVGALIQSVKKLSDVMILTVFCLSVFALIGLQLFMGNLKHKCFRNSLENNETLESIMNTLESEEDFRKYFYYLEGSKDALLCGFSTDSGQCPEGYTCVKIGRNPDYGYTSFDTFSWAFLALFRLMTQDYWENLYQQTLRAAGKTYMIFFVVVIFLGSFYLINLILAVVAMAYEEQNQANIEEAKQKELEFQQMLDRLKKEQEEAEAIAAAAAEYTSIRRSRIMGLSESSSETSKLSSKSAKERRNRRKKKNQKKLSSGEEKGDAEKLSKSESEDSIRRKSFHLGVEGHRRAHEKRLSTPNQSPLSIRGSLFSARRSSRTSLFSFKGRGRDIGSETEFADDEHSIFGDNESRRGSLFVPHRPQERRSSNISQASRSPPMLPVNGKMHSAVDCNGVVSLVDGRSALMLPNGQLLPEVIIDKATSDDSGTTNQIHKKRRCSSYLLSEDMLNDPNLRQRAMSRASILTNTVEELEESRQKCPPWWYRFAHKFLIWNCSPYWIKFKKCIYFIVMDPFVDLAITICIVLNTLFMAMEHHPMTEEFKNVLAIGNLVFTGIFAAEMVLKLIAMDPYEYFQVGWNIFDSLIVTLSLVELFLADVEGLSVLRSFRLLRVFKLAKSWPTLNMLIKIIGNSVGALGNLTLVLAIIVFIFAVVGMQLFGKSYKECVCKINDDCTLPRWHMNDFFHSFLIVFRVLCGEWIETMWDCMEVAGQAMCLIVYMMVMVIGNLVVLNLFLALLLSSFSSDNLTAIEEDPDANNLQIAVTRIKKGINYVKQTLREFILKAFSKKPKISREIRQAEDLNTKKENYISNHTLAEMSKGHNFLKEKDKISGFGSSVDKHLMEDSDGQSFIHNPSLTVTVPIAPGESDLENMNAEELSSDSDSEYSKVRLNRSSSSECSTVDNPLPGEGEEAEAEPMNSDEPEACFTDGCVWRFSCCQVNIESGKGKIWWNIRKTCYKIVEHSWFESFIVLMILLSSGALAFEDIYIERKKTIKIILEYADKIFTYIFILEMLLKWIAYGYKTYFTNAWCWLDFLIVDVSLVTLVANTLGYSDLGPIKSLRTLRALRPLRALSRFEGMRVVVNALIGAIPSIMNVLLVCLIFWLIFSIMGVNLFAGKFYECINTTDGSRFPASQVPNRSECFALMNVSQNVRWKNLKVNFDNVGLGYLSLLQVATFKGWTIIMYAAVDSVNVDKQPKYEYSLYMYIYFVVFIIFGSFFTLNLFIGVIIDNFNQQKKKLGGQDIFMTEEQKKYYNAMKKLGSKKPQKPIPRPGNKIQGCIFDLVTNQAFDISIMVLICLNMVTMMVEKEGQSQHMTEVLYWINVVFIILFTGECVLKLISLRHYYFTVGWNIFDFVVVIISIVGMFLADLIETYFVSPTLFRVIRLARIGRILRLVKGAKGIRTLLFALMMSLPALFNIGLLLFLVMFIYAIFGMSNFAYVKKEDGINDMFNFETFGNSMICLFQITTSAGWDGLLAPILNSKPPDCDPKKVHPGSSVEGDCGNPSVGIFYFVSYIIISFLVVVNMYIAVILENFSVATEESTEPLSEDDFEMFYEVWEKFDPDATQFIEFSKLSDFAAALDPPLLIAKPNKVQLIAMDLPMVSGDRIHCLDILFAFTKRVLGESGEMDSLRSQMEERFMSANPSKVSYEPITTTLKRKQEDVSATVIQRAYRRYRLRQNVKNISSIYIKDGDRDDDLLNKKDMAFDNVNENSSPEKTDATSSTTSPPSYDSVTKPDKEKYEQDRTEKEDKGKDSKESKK

What is called IC50 is the concentration at which inhibition is half-maximal. For `COc1cc(-c2cc(Cl)ccc2C)c(F)cc1-n1c2c(ccc1=O)CN(S(=O)(=O)Nc1ccon1)CC2` (single isomer, unassigned) [Example 9-M, M-1-(5′-chloro-2-fluoro-5-methoxy-2′-methyl-4-biphenylyl)-N-3-isoxazolyl-2-oxo-1,5,7,8-tetrahydro-1,6-naphthyridine-6(2H)-sulfonamide], the half-inhibitory concentration (IC50) on human Nav1.7 [1] was determined as 0.772 µM; on human Nav1.7 [2], 0.055 µM.

Consider `COc1cc(-c2cc(Cl)cnc2OC)c(F)cc1-n1c2c(ccc1=O)CN(S(=O)(=O)Nc1cccnn1)CC2` [Example 60, P-1-(4-(5-chloro-2-methoxypyridin-3-yl)-5-fluoro-2-methoxyphenyl)-2-oxo-N-(pyridazin-3-yl)-1,2,7,8-tetrahydro-1,6-naphthyridine-6(5H)-sulfonamide], for which the IC50 amounted to 0.42 µM on human Nav1.7 [1] and 0.0375 µM on human Nav1.7 [2].

For the compound `COc1cc(-c2ccc(F)c(F)c2)c(F)cc1-n1c2c(ccc1=O)CN(S(=O)(=O)Nc1ccon1)CC2` (single isomer, unassigned) [Example 20-M, M-N-3-isoxazolyl-2-oxo-1-(2,3′,4′-trifluoro-5-methoxy-4-biphenylyl)-1,5,7,8-tetrahydro-1,6-naphthyridine-6(2H)-sulfonamide], the values for the IC50 at human Nav1.7 [1] and on human Nav1.7 [2] were greater than 30 µM and 2.67 µM, respectively.

Consider `COc1cc(-c2cccc(C(F)F)c2)c(F)cc1-n1c2c(ccc1=O)CN(S(=O)(=O)Nc1cccnn1)CC2` [Example 72, P-1-(3′-(difluoromethyl)-2-fluoro-5-methoxy-[1,1′-biphenyl]-4-yl)-2-oxo-N-(pyridazin-3-yl)-1,2,7,8-tetrahydro-1,6-naphthyridine-6(5H)-sulfonamide], for which the IC50 came out at 0.265 µM on human Nav1.7 [1] and 0.0151 µM on human Nav1.7 [2].

As to `COc1cc(-c2ccc(F)c(F)c2)c(F)cc1-n1c2c(ccc1=O)CN(S(=O)(=O)Nc1cccnn1)CC2` (single isomer, unassigned) [Example 32-M, M-2-oxo-N-3-pyridazinyl-1-(2,3′,4′-trifluoro-5-methoxy-4-biphenylyl)-1,5,7,8-tetrahydro-1,6-naphthyridine-6(2H)-sulfonamide], the figures for the 50% inhibitory concentration (IC50) at human Nav1.7 [1] and at human Nav1.7 [2] were 20.6 µM and 1 µM, respectively.

Consider `COc1cc(-c2cc(F)cc(F)c2)c(F)cc1-n1c2c(ccc1=O)CN(S(=O)(=O)Nc1ncc(F)cn1)CC2` (single isomer, unassigned) [Example 10-P, P-N-(5-fluoro-2-pyrimidinyl)-2-oxo-1-(2,3′,5′-trifluoro-5-methoxy-4-biphenylyl)-1,5,7,8-tetrahydro-1,6-naphthyridine-6(2H)-sulfonamide], for which the figures for the IC50 on human Nav1.7 [1] and at human Nav1.7 [2] were 0.644 µM and 0.0529 µM, respectively.

As to `COc1cc(-c2cc(F)cc(Cl)c2)c(F)cc1-n1c2c(ccc1=O)CN(S(=O)(=O)Nc1ncccn1)CC2` (single isomer, unassigned) [Example 31-M, M-1-(3′-chloro-2,5′-difluoro-5-methoxy-4-biphenylyl)-2-oxo-N-2-pyrimidinyl-1,5,7,8-tetrahydro-1,6-naphthyridine-6(2H)-sulfonamide], the half-maximal inhibitory concentration (IC50) on human Nav1.7 [1] came to 5.02 µM; at human Nav1.7 [2], 2.73 µM.

With `COc1cc(-c2cc(C(F)(F)F)cnc2OC)c(F)cc1-n1c2c(ccc1=O)CN(S(=O)(=O)Nc1cccnn1)CC2` [Example 64, P-1-(5-fluoro-2-methoxy-4-(2-methoxy-5-(trifluoromethyl)pyridin-3-yl)phenyl)-2-oxo-N-(pyridazin-3-yl)-1,2,7,8-tetrahydro-1,6-naphthyridine-6(5H)-sulfonamide], the values for the IC50 on human Nav1.7 [1] and at human Nav1.7 [2] were 0.0661 µM and 0.0019 µM, respectively.

`COc1cc(-c2ccc(F)c(F)c2)c(F)cc1-n1c2c(ccc1=O)CN(S(=O)(=O)Nc1ncccn1)CC2` (racemic) [Example 28-(Rac), (Rac)-2-oxo-N-2-pyrimidinyl-1-(2,3′,4′-trifluoro-5-methoxy-4-biphenylyl)-1,5,7,8-tetrahydro-1,6-naphthyridine-6(2H)-sulfonamide]: the IC50 on human Nav1.7 [1] turned out to be 1.68 µM; on human Nav1.7 [2], 0.199 µM.

On to `COc1cc(-c2cc(F)cc(Cl)c2)c(F)cc1-n1c2c(ccc1=O)CN(S(=O)(=O)Nc1ncccn1)CC2` (single isomer, unassigned) [Example 31-P, P-1-(3′-chloro-2,5′-difluoro-5-methoxy-4-biphenylyl)-2-oxo-N-2-pyrimidinyl-1,5,7,8-tetrahydro-1,6-naphthyridine-6(2H)-sulfonamide], for which the IC50 came out at 0.205 µM at human Nav1.7 [1] and 0.0369 µM at human Nav1.7 [2].

Take `COc1cc(-c2cc(F)cc(F)c2)c(F)cc1-n1c2c(ccc1=O)CN(S(=O)(=O)Nc1ncc(F)cn1)CC2` (single isomer, unassigned) [Example 10-M, M-N-(5-fluoro-2-pyrimidinyl)-2-oxo-1-(2,3′,5′-trifluoro-5-methoxy-4-biphenylyl)-1,5,7,8-tetrahydro-1,6-naphthyridine-6(2H)-sulfonamide]: the IC50 was found to be 0.612 µM at human Nav1.7 [1] and 0.102 µM at human Nav1.7 [2].

`COc1cc(-c2ccc(F)c(F)c2)c(Cl)cc1-n1c2c(ccc1=O)CN(S(=O)(=O)Nc1ccon1)CC2` [Example 51, P-1-(2-chloro-3′,4′-difluoro-5-methoxy-4-biphenylyl)-N-3-isoxazolyl-2-oxo-1,5,7,8-tetrahydro-1,6-naphthyridine-6(2H)-sulfonamide]: the IC50 on human Nav1.7 [1] is 0.0451 µM; on human Nav1.7 [2] it was less than 0.002 µM.

Take `COc1cc(-c2ccc(Cl)cc2)c(F)cc1-n1c2c(ccc1=O)CN(S(=O)(=O)Nc1cccnn1)CC2` [Example 61, P-1-(4′-chloro-2-fluoro-5-methoxy-[1,1′-biphenyl]-4-yl)-2-oxo-N-(pyridazin-3-yl)-1,2,7,8-tetrahydro-1,6-naphthyridine-6(5H)-sulfonamide]: the IC50 stood at 0.195 µM on human Nav1.7 [1] and 0.0241 µM on human Nav1.7 [2].

For the compound `COc1ccc(Cl)cc1-c1cc(OC)c(-n2c3c(ccc2=O)CN(S(=O)(=O)Nc2cccnn2)CC3)cc1F` [Example 59, P-1-(5′-chloro-2-fluoro-2′,5-dimethoxy-[1,1′-biphenyl]-4-yl)-2-oxo-N-(pyridazin-3-yl)-1,2,7,8-tetrahydro-1,6-naphthyridine-6(5H)-sulfonamide], the results for the IC50 on human Nav1.7 [1] and on human Nav1.7 [2] were 0.0481 µM and 0.0065 µM, respectively.

For the compound `COc1cc(-c2cccc(C(F)(F)F)c2)c(Cl)cc1-n1c2c(ccc1=O)CN(S(=O)(=O)Nc1ccon1)CC2` [Example 54, P-1-(2-chloro-5-methoxy-3′-(trifluoromethyl)-4-biphenylyl)-N-3-isoxazolyl-2-oxo-1,5,7,8-tetrahydro-1,6-naphthyridine-6(2H)-sulfonamide], the concentration for half-maximal inhibition (IC50) at human Nav1.7 [1] amounted to 0.0069 µM; on human Nav1.7 [2] it was 0.0005 µM.

Turning to `COc1cc(-c2cc(F)cc(F)c2)c(F)cc1-n1c2c(ccc1=O)CN(S(=O)(=O)Nc1ccon1)[C@@H](C)C2` (single isomer, unassigned) [Example 3-C-P], the results for the half-maximal inhibitory concentration (IC50) at human Nav1.7 [1] and at human Nav1.7 [2] were greater than 1 µM and greater than 30 µM, respectively.

On to `COc1cc(-c2cc(F)cc(F)c2)c(F)cc1-n1c2c(ccc1=O)[C@@H](C)N(S(=O)(=O)Nc1ccon1)CC2` [Example 3-A-P, P-(5R)-N-3-isoxazolyl-5-methyl-2-oxo-1-(2,3′,5′-trifluoro-5-methoxy-4-biphenylyl)-1,5,7,8-tetrahydro-1,6-naphthyridine-6(2H)-sulfonamide], for which the values for the IC50 at human Nav1.7 [1] and at human Nav1.7 [2] were greater than 1 µM and 1.2 µM, respectively.

For the compound `COc1cc(-c2ccc(F)c(F)c2)c(F)cc1-n1c2c(ccc1=O)CN(S(=O)(=O)Nc1ncccn1)CC2` (single isomer, unassigned) [Example 28-M, M-2-oxo-N-2-pyrimidinyl-1-(2,3′,4′-trifluoro-5-methoxy-4-biphenylyl)-1,5,7,8-tetrahydro-1,6-naphthyridine-6(2H)-sulfonamide], the IC50 at human Nav1.7 [1] is greater than 30 µM; on human Nav1.7 [2], greater than 10 µM.

Regarding `COc1ccc(-c2cc(OC)c(-n3c4c(ccc3=O)CN(S(=O)(=O)Nc3cccnn3)CC4)cc2F)cc1Cl` [Example 63, P-1-(3′-chloro-2-fluoro-4′,5-dimethoxy-[1,1′-biphenyl]-4-yl)-2-oxo-N-(pyridazin-3-yl)-1,2,7,8-tetrahydro-1,6-naphthyridine-6(5H)-sulfonamide], the IC50 at human Nav1.7 [1] was 0.321 µM; on human Nav1.7 [2], 0.0222 µM.

Turning to `COc1cc(-c2ccc(F)c(C)c2)c(C)cc1-n1c2c(ccc1=O)CN(S(=O)(=O)Nc1cccnn1)CC2` (single isomer, unassigned) [Example 93-M, M-1-(4′-fluoro-5-methoxy-2,3′-dimethyl-[1,1′-biphenyl]-4-yl)-2-oxo-N-(pyridazin-3-yl)-1,2,7,8-tetrahydro-1,6-naphthyridine-6(5H)-sulfonamide], the IC50 at human Nav1.7 [1] was 1.8 µM; on human Nav1.7 [2], 0.27 µM.

Turning to `COc1cc(-c2cc(F)cc(Cl)c2)c(F)cc1-n1c2c(ccc1=O)CN(S(=O)(=O)Nc1ccccn1)CC2` (racemic) [Example 11-(Rac), (Rac)-1-(3′-chloro-2,5′-difluoro-5-methoxy-4-biphenylyl)-2-oxo-N-2-pyridinyl-1,5,7,8-tetrahydro-1,6-naphthyridine-6(2H)-sulfonamide], the IC50 was 0.371 µM on human Nav1.7 [1] and 0.0609 µM on human Nav1.7 [2].

In the case of `COc1cc(-c2cc(F)cc(Cl)c2)ccc1-n1c2c(ccc1=O)CN(S(=O)(=O)Nc1ccon1)CC2` (racemic) [7-(Rac), (Rac)-1-(3′-chloro-5′-fluoro-3-methoxy-4-biphenylyl)-N-3-isoxazolyl-2-oxo-1,5,7,8-tetrahydro-1,6-naphthyridine-6(2H)-sulfonamide], the IC50 on human Nav1.7 [1] worked out at 0.254 µM; on human Nav1.7 [2] it was 0.0167 µM.
